≈ marks a conversion by molar mass, not a printed value. Like-named read-outs stand apart in the source and are kept apart here.
Legend:
[1] = Table S5, 2nd batch
in vitro = conditions: human; for Papp A→B at 90 min, 10 µM: Caco-2, pH 7.4, Papp (AB); for Papp B→A at 90 min, 10 µM: Caco-2, pH 7.4, Papp (BA)
[2] = Kinetic solubility in phosphate-buffered saline, pH 7.4; assay type: physicochemical; conditions: 25 °C, pH 7.4, aqueous buffer, kinetic from dmso stock; for solubility at 2 h: PBS solubility
Procedure: page 239: 7. […] The data […] analysis software. […] page 240: Methods Kinetic solubility assay was performed according to Enamine's aqueous solubility SOP. Briefly, […] theoretical concentration of 400 μM in duplicates in phosphate-buffered saline pH 7.4 […] The experimental compound dilutions in PBS were further allowed to equilibrate at 25 °C on a thermostatic shaker for two hours and then filtered through HTS filter plates using a vacuum manifold. The filtrates of test […] prepared to theoretical concentrations of 0 μM (blank), 10 μM, 25 μM, 50 μM, 100 μM, and 200 […] Ondansetron was used as a reference compound to control proper assay performance. 200 μL of each sample was transferred to a 96-well plate and measured in the 230-550 nm range with a 5 nm step. The concentrations of compounds in PBS filtrate are calculated using a dedicated Microsoft Excel calculation script. Proper absorbance wavelengths for calculations are selected for each compound manually based on absorbance maximums (absolute absorbance unit values for the minimum and maximum concentration points within the 0 - 3 OD range). Each final dataset is visually evaluated by the operator, and goodness of fit (R2) is calculated for each calibration curve. […] close to the upper limit of the range may have higher actual solubility (e.g. 5'-deoxy-5- fluorouridine). The calibration curves are shown in Appendix*. […] Compound ID PBS solubility, pH 7.4, μM SE […] Ondansetron 128 126 127** 1.1 EN300-7362818 6 6 6 0.2 (Sonidegib) BCHep-Sonidegib (50) 5 3 4 0.9 Table S3. 2nd batch PBS solubility, pH 7.4, μM Compound ID SE […] Ondansetron 124 124 124** 0.1 EN300-45381956 (51) 34 34 34 0.2 *Goodness of fit (R2) in all titration curves as well as the variations between repeat measurements indicates a high quality of the experimental data in the current batch of test articles. **Ondansetron solubility data are consistent with those previously obtained. […]

[3] = test system: Hedgehog signaling pathway; conditions: Mus musculus
[4] = Metabolic stability in human liver microsomes; assay type: in vitro ADME; conditions: both sexes, human
Procedure: 9. Metabolic Stability in Human Liver Microsomes
The objective of this study was to determine the metabolic stability of 3 test articles (EN300- […]
in human liver microsomes at five-time points over 40 minutes using HPLC-MS. Metabolic stability is defined as the percentage of parent compound lost over time in the presence of a metabolically active test system.
Potassium phosphate monobasic (Bio-Basic, Canada; Lot #N9016010)
Potassium phosphate dibasic (Bio-Basic, Canada; Lot #MA7100050) […]
Glucose-6-phosphate dehydrogenase from baker's yeast, type XV (Sigma-Aldrich, USA; Cat […]
D-Glucose-6-phosphate sodium salt (Sigma-Aldrich, USA; Cat #G7879-1G)
NADPH tetrasodium salt (BLD Pharmatech Ltd., Cat #BD116582)
Verapamil hydrochloride (Sigma Aldrich, USA; Cat #V4629)
Niclosamide (Sigma-Aldrich, USA; Cat #N3510)
DMSO stock solutions of the tested compounds 20 mM
Gradient HPLC system (Shimadzu)
Triple quadrupole mass-detector API 3000 with TurboIonSpray Ion Source (AB Sciex, Canada) […]
Multichannel pipettors 1-30 µL, 2-125 µL, 30-850 µL (Thermo Scientific) […]
All measurements were performed using the Shimadzu HPLC system including vacuum degasser, gradient pumps, reverse phase HPLC column, column oven, and autosampler. Mass spectrometric analysis was performed using an API 3000 mass spectrometer from Applied Biosystems/MDS Sciex (AB Sciex) with Turbo V ion source and TurboIonspray interface. The […]
and system control were performed using Analyst 1.6.3 software from AB Sciex.
Microsomal incubations were carried out in 96-well plates in 5 aliquots of 30 μL each (one for each time point). Liver microsomal incubation medium comprised of phosphate buffer (100 mM, pH 7.4), MgCl2 (3.3 mM), NADPН (3 mM), glucose-6-phosphate (5.3 mM), glucose-6-phosphate dehydrogenase (0.67 units/mL) with 0.42 mg of liver microsomal protein per mL. In the control reactions, the NADPH-cofactor system was substituted with phosphate buffer. Test compounds […]
100 rpm. Five-time points over 40 minutes were analyzed. The reactions were stopped by adding 5 volumes of acetonitrile with internal standard to incubation aliquots, followed by protein sedimentation by centrifuging at 5500 rpm for 5 min. Each reaction was performed in duplicates.
Supernatants were analyzed using the HPLC system coupled with a tandem mass spectrometer.
The elimination constant (kel), half-life (t1/2), and intrinsic clearance (Clint) were determined in a plot of […] versus time, using linear regression analysis:1
1 In order to indicate the quality of the linear regression analysis, the R2 (determination coefficient) values are provided.
In some cases, the last time point is excluded from the calculations to ensure acceptable logarithmic linearity of decay.

[5] = replicate 1, 10 µM, no verapamil
[6] = replicate 2, 10 µM, no verapamil

A D ([1]; incubation 1) of 5.61E+04, a D ([1]; incubation 2) of 5.60E+04 and a D ([1]; incubation 3) of 6.79E+04 were found for `Cc1c(C(=O)Nc2ccc(N3C[C@@H](C)O[C@@H](C)C3)nc2)cccc1-c1ccc(OC(F)(F)F)cc1` [Sonidegib] in this work. For the same compound, the logD at 1 h (physchem; pH 7.4, LogD, pH 7.4) was no less than 4.5, the logD at 1 h (physchem; pH 7.4, LogD, pH 7.4 (overall of 3 incubations)) was no less than 4.5 and the logD at 1 h (physchem; pH 7.4, logD (7.4): experimental distribution coefficient in n-octanol/phosphate-buffered saline, pH 7.4) was no less than 4. For the same compound, the efflux ratio at 90 min, 10 µM (in vitro; Caco-2, pH 7.4) was 0.3, the Papp A→B at 90 min, 10 µM (in vitro; Mean, 10 µM, no verapamil) was 2.8 ×10⁻⁶ cm/s and the Papp A→B at 90 min, 10 µM (in vitro; [5]) was 2.9 ×10⁻⁶ cm/s. The Papp A→B at 90 min, 10 µM (in vitro; [6]) was 2.7 ×10⁻⁶ cm/s, the Papp B→A at 90 min, 10 µM (in vitro; Mean, 10 µM, no verapamil) was 0.9 ×10⁻⁶ cm/s and the Papp B→A at 90 min, 10 µM (in vitro; [5]) was 1 ×10⁻⁶ cm/s. The Papp B→A at 90 min, 10 µM (in vitro; [6]) was 0.9 ×10⁻⁶ cm/s, the recovery at 90 min, 10 µM (in vitro; Caco-2, pH 7.4, Recovery A-B in presence of Verapamil, Mean, with verapamil) was 65% and the recovery at 90 min, 10 µM (in vitro; Caco-2, pH 7.4, Recovery A-B in presence of Verapamil, replicate 1, with verapamil) was 67%. It also gave a recovery at 90 min, 10 µM (in vitro; Caco-2, pH 7.4, Recovery A-B in presence of Verapamil, replicate 2, with verapamil) of 63%, a recovery at 90 min, 10 µM (in vitro; Caco-2, pH 7.4, Recovery A-B, Mean, no verapamil) of 36% and a recovery at 90 min, 10 µM (in vitro; Caco-2, pH 7.4, Recovery A-B, replicate 1, no verapamil) of 35%. It also gave a recovery at 90 min, 10 µM (in vitro; Caco-2, pH 7.4, Recovery A-B, replicate 2, no verapamil) of 37%, a recovery at 90 min, 10 µM (in vitro; Caco-2, pH 7.4, Recovery B-A in presence of Verapamil, Mean, with verapamil) of 61% and a recovery at 90 min, 10 µM (in vitro; Caco-2, pH 7.4, Recovery B-A in presence of Verapamil, replicate 1, with verapamil) of 63%. It also gave a recovery at 90 min, 10 µM (in vitro; Caco-2, pH 7.4, Recovery B-A in presence of Verapamil, replicate 2, with verapamil) of 60%, a recovery at 90 min, 10 µM (in vitro; Caco-2, pH 7.4, Recovery B-A, Mean, no verapamil) of 45% and a recovery at 90 min, 10 µM (in vitro; Caco-2, pH 7.4, Recovery B-A, replicate 1, no verapamil) of 46%. It also gave a recovery at 90 min, 10 µM (in vitro; Caco-2, pH 7.4, Recovery B-A, replicate 2, no verapamil) of 43%, a solubility kinetic at 2 h [2] of 6 µM (≈ 2.91 µg/mL) and a solubility at 2 h ([2]; pH 7.4, Incubation 1) of 6 µM (≈ 2.91 µg/mL). For the same compound, the solubility at 2 h ([2]; pH 7.4, Incubation 2) was 6 µM (≈ 2.91 µg/mL), the solubility at 2 h ([2]; pH 7.4, Mean) was 6 µM (≈ 2.91 µg/mL) and the IC50 ([3]; NIH3T3, read-out: IC50, Hedgehog signaling pathway, mean ± SD from 2 independent experiments, experiment with BCH-Sonidegib (50)) was 6.4 ± 0.5 nM. For the same compound, the IC50 ([3]; NIH3T3, read-out: IC50, Hedgehog signaling pathway, reference compound in the experiment with EN300-45381956 (51)) was 1.46 nM, the IC50 ([3]; NIH3T3, read-out: pIC50, Hedgehog signaling pathway, experiment with EN300-45381956 (51) (converted), calculated from IC50) was 1.58 nM and the half-life at 2 μM ([4]; human liver microsomes, pH 7.4, human liver microsomes, read-out: t1/2: experimental half-time of a metabolic decomposition) was 1.73 h. For the same compound, the microsomal CLint at 2 μM ([4]; human liver microsomes, pH 7.4, read-out: CLint: experimental metabolic stability in human liver microsomes) was 16 µL/min/mg, the remaining at 7 min, 2 µM ([4]; liver microsomes, pH 7.4, Table S7, 2nd batch, 7 min, 2 µM) was 100% and the remaining at […], 2 µM ([4]; liver microsomes, pH 7.4, Table S7, 2nd batch, 15 min, 2 µM) was 94%. The remaining at 25 min, 2 µM ([4]; liver microsomes, pH 7.4, Table S7, 2nd batch, 25 min, 2 µM) was 89%, the remaining at 40 min, 2 µM ([4]; liver microsomes, pH 7.4, Table S7, 2nd batch, 2 µM, read-out: % Remaining, Mean of 2) was 77% and the remaining at 40 min, 2 µM ([4]; liver microsomes, pH 7.4, Table S7, 2nd batch, no NADPH, read-out: % Remaining without cofactor, Mean of 2) was 103%. It also gave a k el at 2 µM ([4]; liver microsomes, pH 7.4, Table S7, 2nd batch) of 0.000117 s⁻¹ and a half-life at 2 μM ([4]; liver microsomes, pH 7.4, Table S7, 2nd batch, read-out: t1/2) of 1.73 h.
